In test [1] the target is T1, GPR43 (Homo sapiens, UniProt O15552).
T1 construct: expressed in transfected cells
T1 sequence (O15552 1-330): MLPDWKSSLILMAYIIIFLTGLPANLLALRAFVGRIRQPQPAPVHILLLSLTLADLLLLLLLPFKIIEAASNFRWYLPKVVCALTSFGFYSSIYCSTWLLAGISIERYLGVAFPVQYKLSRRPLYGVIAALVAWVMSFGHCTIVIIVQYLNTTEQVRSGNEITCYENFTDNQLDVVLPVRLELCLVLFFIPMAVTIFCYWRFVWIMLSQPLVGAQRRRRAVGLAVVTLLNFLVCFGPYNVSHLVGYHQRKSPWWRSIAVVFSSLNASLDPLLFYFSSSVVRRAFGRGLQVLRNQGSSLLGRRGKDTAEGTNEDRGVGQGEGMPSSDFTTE
Briefly: Calcium mobilization assay without probenecid. The format is cell-based. To be noted: GPR43 stably expressing cells, triggered with sodium acetate at EC80, read-out: GPR43 assay without probenicid IC50. The procedure, abridged: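 In GPR43-expressing cells loaded with a Calcium 4 dye, antagonism was tested by a 15 min compound preincubation at 37 °C, then a sodium acetate challenge at EC80, with Ca-flux read on injection. For agonism, Ca-flux was recorded directly on compound injection.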
Background: Calcium assays in cells follow changes in intracellular calcium, usually with a dye or a luminescent sensor.

Test [2] addresses T1, GPR43. Briefly: Calcium mobilization assay with probenecid. The settings on record: GPR43 stably expressing cells; triggered with sodium acetate at EC80; 2.5 mM probenecid; read-out: GPR43 assay with probenicid IC50. The format is cell-based. The method, boiled down: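 Cells stably expressing GPR43 plated overnight at 37 °C, then loaded 2 h with Calcium 4 dye plus 2.5 mM probenecid. […]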

Molecules are shown by their SMILES. pIC50: −log10 of the molar value.

As a reminder, the pIC50 is −log10 of the IC50, conventionally taken in molar units.

`Cc1cc(C)cc(CC(=O)N2CCC2(C)C(=O)N(C)Cc2ccc(C(C)C)cc2)c1` (stereo not drawn) [Compound 31, 1-[2-(3,5-Dimethyl-phenyl)-acetyl]-2-methyl-azetidine-2-carboxylic acid (4-isopropyl-benzyl)-methyl-amide]: the pIC50 is 6.00 to 6.30 at GPR43 [1] and below 6.00 on GPR43 [2].
On to `CNC(=O)CN(Cc1ccc(Cl)cc1)C(=O)C1(C)CCN1C(=O)Cc1cc(C)cc(C)c1` (stereo not drawn) [Compound 53, 1-[2-(3,5-Dimethyl-phenyl)-acetyl]-2-methyl-azetidine-2-carboxylic acid (4-chloro-benzyl)-methylcarbamoylmethyl-amide], for which the pIC50 on GPR43 [1] and at GPR43 [2] was 6.30 to 7.00 each time.
`CN(Cc1ccc(Cl)cc1)C(=O)C1(C)CCN1C(=O)Cc1ccc(-c2ccc(F)cc2)cc1` (stereo not drawn) [Compound 15, 1-[2-(4′-Fluoro-biphenyl-4-yl)-acetyl]-2-methyl-azetidine-2-carboxylic acid (4-chloro-benzyl)-methyl-amide]: the pIC50 at GPR43 [1] and on GPR43 [2] was below 6.00 each time.
Take `CC1(C(=O)N(CC#N)Cc2ccc(Cl)cc2)CCN1C(=O)Cc1csc2ccccc12` (stereo not drawn) [Compound 84, 1-(2-Benzo[b]thiophen-3-yl-acetyl)-2-methyl-azetidine-2-carboxylic acid (4-chloro-benzyl)-cyanomethyl-amide]: the pIC50 at GPR43 [1] and at GPR43 [2] was 6.30 to 7.00 throughout.
For the molecule `Cc1cc(C)cc(CC(=O)N2CCC2(C)C(=O)N(C)Cc2ccc(OC(F)(F)F)cc2)c1` (stereo not drawn) [Compound 37, 1-[2-(3,5-Dimethyl-phenyl)-acetyl]-2-methyl-azetidine-2-carboxylic acid methyl-(4-trifluoromethoxy-benzyl)-amide], the negative logarithm of the IC50 (pIC50) on GPR43 [1] was 6.00 to 6.30; on GPR43 [2], below 6.00.
Take `CN(Cc1ccc(Cl)cc1)C(=O)C1(C)CCN1C(=O)Cc1cccc(-c2ccccc2)c1` (stereo not drawn) [Compound 27, 1-(2-Biphenyl-3-yl-acetyl)-2-methyl-azetidine-2-carboxylic acid (4-chloro-benzyl)-methyl-amide]: the pIC50 on GPR43 [1] and at GPR43 [2] was below 6.00 each time.
`Cc1cccc(CNC(=O)C2(C)CCN2C(=O)Cc2ccc(Cl)cc2Cl)c1` (stereo not drawn) [Compound 51, 1-[2-(2,4-Dichloro-phenyl)-acetyl]-2-methyl-azetidine-2-carboxylic acid 3-methyl-benzylamide]: the pIC50 on GPR43 [1] and on GPR43 [2] was below 6.00 in each case.
`CC1(C(=O)N(CC(=O)O)Cc2ccc(Cl)cc2)CCN1C(=O)Cc1noc2ccccc12` (stereo not drawn) [Compound 79, [[1-(2-Benzo[d]isoxazol-3-yl-acetyl)-2-methyl-azetidine-2-carbonyl]-(4-chloro-benzyl)-amino]-acetic acid]: the pIC50 at GPR43 [1] and at GPR43 [2] was below 6.00 each time.
For the molecule `Cc1cc(C)cc(CC(=O)N2CCC2(C)C(=O)N(CCCC#N)Cc2ccc(Cl)cc2)c1` (stereo not drawn) [Compound 97, 1-[2-(3,5-Dimethyl-phenyl)-acetyl]-2-methyl-azetidine-2-carboxylic acid (4-chloro-benzyl)-(3-cyano-propyl)-amide], the results for the pIC50 on GPR43 [1] and at GPR43 [2] were 6.30 to 7.00 and 6.00 to 6.30, respectively.
`CC1(C(=O)NCc2ccc(Cl)cc2)CCN1C(=O)Oc1ccc(Cl)cc1` (stereo not drawn) [Compound 2, 2-(4-Chloro-benzylcarbamoyl)-2-methyl-azetidine-1-carboxylic acid 4-chloro-phenyl ester]: the pIC50 at GPR43 [1] and on GPR43 [2] was below 6.00 in each case.
As for `Cc1ccc(CNC(=O)C2(C)CCN2C(=O)Cc2ccc(Cl)cc2Cl)cc1` (stereo not drawn) [Compound 43, 1-[2-(2,4-Dichloro-phenyl)-acetyl]-2-methyl-azetidine-2-carboxylic acid 4-methyl-benzylamide], the pIC50 on GPR43 [1] and at GPR43 [2] was below 6.00 throughout.
In the case of `CCOC(=O)CN(Cc1ccc(Cl)cc1)C(=O)C1(C)CCN1C(=O)Cc1csc2ccccc12` (stereo not drawn) [Compound 58, [[1-(2-Benzo[b]thiophen-3-yl-acetyl)-2-methyl-azetidine-2-carbonyl]-(4-chloro-benzyl)-amino]-acetic acid ethyl ester], the pIC50 at GPR43 [1] and at GPR43 [2] was 6.30 to 7.00 throughout.
For the molecule `CN(Cc1ccc(Cl)cc1)C(=O)C1(C)CCN1C(=O)Cc1ccccc1OCc1ccccc1` (stereo not drawn) [Compound 16, 1-[2-(2-Benzyloxy-phenyl)-acetyl]-2-methyl-azetidine-2-carboxylic acid (4-chloro-benzyl)-methyl-amide], the pIC50 on GPR43 [1] and on GPR43 [2] was below 6.00 each time.
Consider `CN(Cc1ccc(Cl)cc1)C(=O)C1(C)CCN1C(=O)Cc1ccccc1Cl` (stereo not drawn) [Compound 9, 1-[2-(2-Chloro-phenyl)-acetyl]-2-methyl-azetidine-2-carboxylic acid (4-chloro-benzyl)-methyl-amide], for which the negative logarithm of the IC50 (pIC50) on GPR43 [1] and at GPR43 [2] was below 6.00 throughout.
On to `COC(=O)CN(Cc1ccc(Cl)cc1)C(=O)C1(C)CCN1C(=O)Cc1cc(C)cc(C)c1` (stereo not drawn) [Compound 48, ((4-Chloro-benzyl)-{1-[2-(3,5-dimethyl-phenyl)-acetyl]-2-methyl-azetidine-2-carbonyl}-amino)-acetic acid methyl ester], for which the pIC50 on GPR43 [1] and on GPR43 [2] was 6.00 to 6.30 in each case.
Consider `CN(Cc1ccc(Cl)cc1)C(=O)C1(C)CCN1C(=O)Cc1ccc(-c2ccc(C#N)cc2)cc1` (stereo not drawn) [Compound 24, 1-[2-(4′-Cyano-biphenyl-4-yl)-acetyl]-2-methyl-azetidine-2-carboxylic acid (4-chloro-benzyl)-methyl-amide], for which the pIC50 on GPR43 [1] and on GPR43 [2] was below 6.00 throughout.
As to `CC1(C(=O)N(CCC(=O)O)Cc2ccc(Cl)cc2)CCN1C(=O)Cc1csc2ccccc12` (stereo not drawn) [Compound 88, 3-[[1-(2-Benzo[b]thiophen-3-yl-acetyl)-2-methyl-azetidine-2-carbonyl]-(4-chloro-benzyl)-amino]-propionic acid], the pIC50 at GPR43 [1] and on GPR43 [2] was 6.30 to 7.00 each time.
`CN(Cc1ccc(Cl)cc1)C(=O)C1(C)CCN1C(=O)Cc1cccc(-c2ccccc2C(F)(F)F)c1` (stereo not drawn) [Compound 28, 2-Methyl-1-[2-(2′-trifluoromethyl-biphenyl-3-yl)-acetyl]-azetidine-2-carboxylic acid (4-chloro-benzyl)-methyl-amide]: the pIC50 at GPR43 [1] and on GPR43 [2] was below 6.00 throughout.
As to `CN(Cc1ccc(Cl)cc1)C(=O)C1(C)CCN1C(=O)Cc1ccc(-c2cccc(C#N)c2)cc1` (stereo not drawn) [Compound 22, 1-[2-(3′-Cyano-biphenyl-4-yl)-acetyl]-2-methyl-azetidine-2-carboxylic acid (4-chloro-benzyl)-methyl-amide], the pIC50 at GPR43 [1] and at GPR43 [2] was below 6.00 throughout.
With `Cc1cc(C)cc(CC(=O)N2CCC2(C)C(=O)N(C)Cc2cccc(Cl)c2)c1` (stereo not drawn) [Compound 5, 1-[2-(3,5-Dimethyl-phenyl)-acetyl]-2-methyl-azetidine-2-carboxylic acid (3-chloro-benzyl)-methyl-amide], the pIC50 on GPR43 [1] and at GPR43 [2] was below 6.00 in each case.
Take `Cc1cc(C)cc(CC(=O)N2CCC2(C)C(=O)N(Cc2ccc(Cl)cc2)CC(C)O)c1` (stereo not drawn) [Compound 72, 1-[2-(3,5-Dimethyl-phenyl)-acetyl]-2-methyl-azetidine-2-carboxylic acid (4-chloro-benzyl)-(2-hydroxy-propyl)-amide]: the values for the pIC50 at GPR43 [1] and at GPR43 [2] were 6.00 to 6.30 and 6.30 to 7.00, respectively.

The record behind these values is patent US8759334B2, “Compounds useful for the treatment of metabolic and inflammatory diseases” (Galapagos NV, priority 2011, dated 2014).
